Source: article PMC3404088, “Development of a Small D-Enantiomeric Alzheimer’s Amyloid-β Binding Peptide Ligand for Future In Vivo Imaging Applications” (PLoS ONE, 2012)

Key:
Aβ1–42 fibrils [1] = molecular target: T1, Aβ1–42 fibrils (Homo sapiens, UniProt P05067); assay: ELISA, compound binding to Aβ1–42 fibrils; conditions: for binding value, binding Aβ1–42 fibrils: optical density after pNPP incubation
T1 construct: Aβ1–42 was dissolved in hexafluoroisopropanol (HFIP)
Procedure: (§1) Aβ1–42 peptide film was prepared from lyophilized powder (Bachem). The powder was reconstituted in HFIP to a final concentration of 1 mM, sonicated for 15 min at room temperature (RT), agitated overnight (ON), and aliquoted into non-siliconized microcentrifuge tubes (12 µl corresponding to 55 µg). The HFIP was evaporated under a stream of argon. The resulting peptide film was vacuum dried for 10 min and stored at -80°C. For direct use as peptide film, an aliquot of Aβ1–42 peptide film was reconstituted with 0.54% dimethylsulphoxide (DMSO) in phosphate buffered saline (PBS) to obtain a final concentration of 10 µg/ml and then used for the ELISA as described below. To prepare fibrils, 55 µg aliquot of peptide film was dissolved in 55 µl of 50 mM Tris-HCl, pH 7.4 and incubated at 37°C for five days. Next, the sample was centrifuged (10’000 rpm for 5 min) and the pellet was diluted in 50 mM Tris-HCl, pH 7.4.
(§2) Aβ1–42 peptide preparations were diluted in 0.05 M bicarbonate-carbonate buffer pH 9.6, to the final concentration of 10 µg/ml and coated onto ELISA plates (MaxiSorp, Nunc). After blocking (PBS; 0.05% Tween; 1% BSA), plates were incubated with 2- or 3-fold dilutions of D-compounds (starting concentration: 10 µg/ml) and incubated for 2 h at 37°C. Plates were then washed and incubated for 2 h at 37°C with the detection antibody Rabbit-a-fluorescein isothiocyanate-AP (Sigma; 1∶10’000 dilution) followed by the incubation for 2.5 h at room temperature (RT) with 1 mg/ml of phosphatase substrate (pNPP, Sigma). The absorbance signal was read at 405 nm wavelength using a Tecan plate reader (Tecan Group Lt, Männedorf, Switzerland).
(§3) ELISA plates (MaxiSorp, Nunc) were coated with anti-Aβ antibody 6E10 (Covance) at a concentration of 5 µg/ml. Either monomeric Aβ1–42 peptide film (mainly monomeric) or Aβ1–42 fibrils, which were prepared as described above, were diluted in PBS to the final concentration 10 µg/ml and mixed with 10-fold dilutions of D-peptide compounds in Eppendorf tubes (starting concentration of D-peptide compounds: 10 µg/ml). The tubes were incubated for 2 h at 37°C. Next, samples were distributed onto the ELISA plate and kept for 2 h at 37°C. Plates were washed and incubated for 2 h at 37°C with the detection antibody Rabbit-a-fluorescein isothiocyanate-AP (Sigma; 1∶10′000 dilution) following the incubation overnight (ON) at RT with 1 mg/ml of phosphatase substrate (pNPP, Sigma). The absorbance signal was read at 405 nm wavelength using the Tecan plate reader (Tecan Group Ltd, Männedorf, Switzerland).
(§4) To verify the SPR results, ELISA was employed to assay the interaction of the ACI-80 derivatives ACI-80-Kϕ, ACI-81-Kϕ, ACI-82-Kϕ, ACI-83-Kϕ, ACI-84-Kϕ, ACI-85-Kϕ, ACI-86-Kϕ, ACI-87-Kϕ, [^19F]-ACI-87-Kϕ, ACI-88-Kϕ, [^19F]-ACI-88-Kϕ, ACI-89-Kϕ, [^19F]-ACI-89-Kϕ) with Aβ1–42 fibrils and Aβ peptide film in solution containing mostly monomers and smaller oligomers (Table 4). To avoid any bias by possible conformational influences the ELISA has been carried out in two versions, once with immobilized antibody and once with immobilized Aβ1–42 as described in the methods section. Both assays yielded similar results and confirmed each other. […] Panels A and B in Figure 2 show the results for binding to Aβ1–42 fibrils and panels C and D in Figure 2 show the results for binding to freshly prepared Aβ1–42 peptide film, which contains mostly monomeric Aβ. In Table 4, the performance of the peptides is expressed relative to that of ACI-80-Kϕ.

[2] = molecular target: T2, Aβ plaques in brain sections of transgenic APP (V717I) x PS1 (A246E) mice (Homo sapiens, UniProt P05067); assay: Ex vivo staining of mouse brain slices by FITC labeled compounds; conditions: 0.01 mg/ml ϕ-labeled compound, 2 h; 10 µm cryostat sections; fluorescence microscopy
T2 construct: triple image overlay of respective stains reveal that the ϕ-compounds identify plaques; from tissue; host or cells: brain cryosections of APP (V717I) x PS1 (A246E) transgenic mice
Procedure: In vitro tissue section staining was performed according to previously described protocols with slight modifications. Mouse brains were obtained from male transgenic (tg) APP (London mutation V717l) x PS1 (A246E) mice aged 13–21 months and from female wild type (wt) mice aged 9–10 months. The mice were anesthetized and transcardially perfused with saline. The brains were removed and snap frozen. 10 µm thick sagittal cryostat sections through the whole mouse brain were produced and mounted onto glass slides. ϕ-labeled compounds were applied to investigate binding. Thus, the slides were thawed, washed in PBS and fixed in 4% paraformaldehyde (20 min at RT) just before incubation with ϕ-labeled compounds. One series of sections was treated only with fluorescent compounds (0.01 mg/ml, incubation time 2 h) while another series of sections were incubated with anti-Aβ antibody 6E10 at 1∶500 dilution (SIG-39320, Covance; final antibody concentration was 2 µg/ml) in addition to ϕ-labeled compounds (0.01 mg/ml). The slices were washed in PBS. The sections incubated with ϕ-labeled compound and 6E10 antibody were further incubated for 2 h at RT with Goat-anti-Mouse IgG1– AlexaFluor 555 (A21127, Invitrogen, 1∶1000 dilution) and washed with PBS. Finally, all sections were counterstained with 4’–6-Diamidino-2-phenylindole (DAPI, 32670, Sigma, incubation 5 min at RT) for the visualization of cell nuclei. The slides were mounted using Prolong Gold Antifade mounting medium (P36930, Invitrogen) and coverslipped.
The tissues were analyzed using a fluorescent Zeiss Axioscope 2 Plus microscope using the AxioVision 4 image analysis software.
A further series of slices was stained using a primary anti-fluorescein isothiocyanate antibody combined with alkaline phosphatase reaction for visualization of ϕ-labeled peptides. Briefly, the sections were treated with blocking solution (10% normal goat serum (NGS), 0.25% Triton X-100 in PBS for 1 h at RT) and incubated with primary antibody (rabbit-anti-FITC; Invitrogen) at a dilution of 1∶500. The sections were then washed and incubated for 2 h at RT with the secondary antibody goat-anti-rabbit-alkaline phosphatase (Sigma) at a dilution of 1∶100. After washing, the slides were incubated with BCIP/NBT substrate (Sigma) for 3 min, washed, dehydrated and mounted using Eukitt mounting medium.

Aβ1–42 fibrils [3] = molecular target: T1, Aβ1–42 fibrils; assay: Surface plasmon resonance (Biacore 1000), semi-quantitative binding to immobilized Aβ1–42 fibrils; conditions: 50 µg/ml, PBS pH 7.4
Procedure: Aβ1–42 was dissolved in hexafluoroisopropanol (HFIP). After overnight incubation, HFIP was removed by evaporation. The Aβ1–42 film was dissolved in PBS buffer pH 7.4 to a concentration of 1 mg/ml and incubated for 7 days at 37°C. For the measurements, a Biacore 1000 (GE Healthcare) instrument was used. Aβ1–42 fibrils (6800 RU) were immobilized on a CM5 sensorchip (GE Healthcare) via amine coupling. The running and sample buffer was PBS, pH 7.4. To allow comparison between the ACI-80 compounds, but to avoid potential over-interpretation of the data by fitting multiple k on and k off values for a yet undefined number of different binding sites, only two values have been taken for further evaluation. Response units achieved under identical injection conditions allow comparison of binding strengths of the compounds. Dissociation rates among the compounds have been compared by measuring the remaining response units 60 s after end of injection as a measure for dissociation (k off). All measurements have been carried out using the same flow cells with identical concentrations and injection conditions. ACI-80-Kϕ derivatives were injected as analytes in a concentration of 50 µg/ml at a flow rate of 5 µl/min for 2 minutes at ambient temperature. The data were evaluated using BiaEvaluation 4.1. The interactions between Aβ1–42 and ACI-80-Kϕ derivatives are given in resonance units (RU) and in % of ACI-80-Kϕ response units. […] Aβ1–42 fibrils were immobilized on a Biacore sensor-chip as described in the methods section, and the interactions of the ϕ-labeled ACI-80 derivatives were measured and compared with original ACI-80-Kϕ. […] Therefore we decided for semi-quantitative comparison between all compounds only. The maximal responses in resonance units (RU) of the ϕ-labeled ACI-80 derivatives during the analyte injection and the remaining response 60 s after injection end (as a semi-quantitative measure for the dissociation rate), have been related to the respective values obtained from identical concentrations of ACI-80-Kϕ in percent.

Aβ1–42 monomers = molecular target: T3, Aβ1–42 monomers (Homo sapiens, UniProt P05067); assay: ELISA, compound binding to Aβ1–42 peptide film (predominantly monomers); conditions: 10 µg/ml compound; for binding value, binding Aβ1–42 monomers: optical density after pNPP incubation
T3 construct: Aβ1–42 peptide film was prepared from lyophilized powder (Bachem); purchased Bachem
Procedure: as §1, §2, §3, §4

[4] = 10 µg/ml compound, value of one single experiment only
[5] = value of one single experiment only

Substance	ELISA binding to Aβ1–42 (Aβ1–42 fibrils [1])	binding value, binding Aβ1–42 fibrils (Aβ1–42 fibrils [1]; [4])	staining / recognition of Aβ plaques [2]	SPR response as compared to ACI-80-Kϕ (Aβ1–42 fibrils [3])	binding value, binding Aβ1–42 monomers (Aβ1–42 monomers; [5])	off-rate based on remaining response 60 s after injection end (Aβ1–42 fibrils [3])	% binding relative to ACI-80-Kϕ, Aβ1–42 fibrils (Aβ1–42 fibrils [1]; 10 µg/ml compound, ACI-80-Kϕ = 100) [%]	binding value, binding Aβ1–42 fibrils (Aβ1–42 fibrils [1]; 10 µg/ml compound, average of two or three experiments)	% binding relative to ACI-80-Kϕ, Aβ1–42 monomers (Aβ1–42 monomers; ACI-80-Kϕ = 100) [%]	binding value, binding Aβ1–42 monomers (Aβ1–42 monomers; average of two or three experiments)
QSHYRHISPAQKK[^19F]ϕ [[^19F]-ACI-87-Kϕ, fluorinated ϕ-labeled ACI-87]	bound well to Aβ1–42 fibrils	*1.26	readily recognized amyloid plaques	decreased response in comparison to the compound without label	*0.86					
SHYRHISPAQKK[^19F]ϕ [[^19F]-ACI-88-Kϕ, fluorinated ϕ-labeled ACI-88]	bound well to Aβ1–42 fibrils	*1.76	readily recognized amyloid plaques		*1.05	slowest off-rate of all tested compounds				
ZSHYRHISPAQVKϕ [ACI-81-Kϕ, ϕ-labeled ACI-80 derivative, Q1Z]				not significantly increased			22	0.20	27	0.13
